ChEMBL document CHEMBL3994622, “Design and synthesis of new RAF kinase-inhibiting antiproliferative quinoline derivatives. Part 2: Diarylurea derivatives” (Eur J Med Chem, 2017)

Key:
[1] = test system: CCRF-CEM; assay: Growth inhibition of human CCRF-CEM cells incubated for 48 hrs by sulforhodamine B assay; format: functional
[2] = test system: PC-3; assay: Growth inhibition of human PC3 cells incubated for 48 hrs by sulforhodamine B assay; format: functional; details: PC-3, 48 h
[3] = test system: CAKI-1; assay: Growth inhibition of human Caki1 cells incubated for 48 hrs by sulforhodamine B assay; format: functional; details: CAKI-1, 48 h
[4] = test system: EKVX; assay: Growth inhibition of human EKVX cells incubated for 48 hrs by sulforhodamine B assay; format: functional
[5] = test system: SF-268; assay: Growth inhibition of human SF268 cells incubated for 48 hrs by sulforhodamine B assay; format: functional; details: SF-268, 48 h
[6] = test system: K562; assay: Growth inhibition of human K562 cells incubated for 48 hrs by sulforhodamine B assay; format: functional; details: K562, 48 h
[7] = test system: KM12; assay: Growth inhibition of human KM12 cells incubated for 48 hrs by sulforhodamine B assay; format: functional; details: KM12, 48 h
[8] = test system: OVCAR-3; assay: Growth inhibition of human OVCAR3 cells incubated for 48 hrs by sulforhodamine B assay; format: functional; details: OVCAR-3, 48 h
[9] = test system: Malme-3M; assay: Growth inhibition of human MALME-3M cells incubated for 48 hrs by sulforhodamine B assay; format: functional
[10] = test system: SN12C; assay: Growth inhibition of human SN12C cells incubated for 48 hrs by sulforhodamine B assay; format: functional
[11] = test system: M14; assay: Growth inhibition of human M14 cells incubated for 48 hrs by sulforhodamine B assay; format: functional; details: M14, 48 h
[12] = test system: SNB-19; assay: Growth inhibition of human SNB19 cells incubated for 48 hrs by sulforhodamine B assay; format: functional; details: SNB-19, 48 h
[13] = test system: MCF7; assay: Growth inhibition of human MCF7 cells incubated for 48 hrs by sulforhodamine B assay; format: functional; details: MCF7, 48 h
[14] = test system: HL-60(TB); assay: Growth inhibition of human HL-60(TB) cells incubated for 48 hrs by sulforhodamine B assay; format: functional; details: HL-60, 48 h
[15] = test system: U-251; assay: Growth inhibition of human U251 cells incubated for 48 hrs by sulforhodamine B assay; format: functional; details: U-251, 48 h
[16] = test system: RXF 393; assay: Growth inhibition of human RXF393 cells incubated for 48 hrs by sulforhodamine B assay; format: functional; details: RXF 393, 48 h
[17] = test system: MDA-MB-435; assay: Growth inhibition of human MDA-MB-435 cells incubated for 48 hrs by sulforhodamine B assay; format: functional; details: MDA-MB-435, 48 h
[18] = test system: BT-549; assay: Growth inhibition of human BT549 cells incubated for 48 hrs by sulforhodamine B assay; format: functional; details: BT-549, 48 h
[19] = test system: A549; assay: Growth inhibition of human A549/ATCC cells incubated for 48 hrs by sulforhodamine B assay; format: functional; details: A549, 48 h
[20] = test system: IGROV-1; assay: Growth inhibition of human IGROV1 cells incubated for 48 hrs by sulforhodamine B assay; format: functional; details: IGROV-1, 48 h
[21] = target: RAF proto-oncogene serine/threonine-protein kinase (Homo sapiens, UniProt P04049); assay: Inhibition of human c-RAF at 10 uM using MEK1 as substrate in presence of [33P]ATP by Hotspot assay relative to control
[22] = test system: HT-29; assay: Growth inhibition of human HT-29 cells incubated for 48 hrs by sulforhodamine B assay; format: functional; details: HT-29, 48 h
[23] = test system: SK-OV-3; assay: Growth inhibition of human SKOV3 cells incubated for 48 hrs by sulforhodamine B assay; format: functional; details: SK-OV-3, 48 h
[24] = test system: SNB-75; assay: Growth inhibition of human SNB75 cells incubated for 48 hrs by sulforhodamine B assay; format: functional; details: SNB-75, 48 h
[25] = test system: 786-0; assay: Growth inhibition of human 786-0 cells incubated for 48 hrs by sulforhodamine B assay; format: functional; details: 786-0, 48 h
[26] = test system: HCT-15; assay: Growth inhibition of human HCT15 cells incubated for 48 hrs by sulforhodamine B assay; format: functional; details: HCT-15, 48 h
[27] = test system: SW-620; assay: Growth inhibition of human SW620 cells incubated for 48 hrs by sulforhodamine B assay; format: functional; details: SW-620, 48 h
[28] = test system: SF-539; assay: Growth inhibition of human SF539 cells incubated for 48 hrs by sulforhodamine B assay; format: functional; details: SF-539, 48 h
[29] = test system: LOX IMVI; assay: Growth inhibition of human LOXIMVI cells incubated for 48 hrs by sulforhodamine B assay; format: functional
[30] = test system: SK-MEL-5; assay: Growth inhibition of human SK-MEL-5 cells incubated for 48 hrs by sulforhodamine B assay; format: functional; details: SK-MEL-5, 48 h
[31] = test system: NCI-H460; assay: Growth inhibition of human NCI-H460 cells incubated for 48 hrs by sulforhodamine B assay; format: functional; details: NCI-H460, 48 h
[32] = test system: RPMI-8226; assay: Growth inhibition of human RPMI8226 cells incubated for 48 hrs by sulforhodamine B assay; format: functional; details: RPMI-8226, 48 h
[33] = read-out: LC50 (the source's name)

Sequence of RAF proto-oncogene serine/threonine-protein kinase (P04049 whole entry): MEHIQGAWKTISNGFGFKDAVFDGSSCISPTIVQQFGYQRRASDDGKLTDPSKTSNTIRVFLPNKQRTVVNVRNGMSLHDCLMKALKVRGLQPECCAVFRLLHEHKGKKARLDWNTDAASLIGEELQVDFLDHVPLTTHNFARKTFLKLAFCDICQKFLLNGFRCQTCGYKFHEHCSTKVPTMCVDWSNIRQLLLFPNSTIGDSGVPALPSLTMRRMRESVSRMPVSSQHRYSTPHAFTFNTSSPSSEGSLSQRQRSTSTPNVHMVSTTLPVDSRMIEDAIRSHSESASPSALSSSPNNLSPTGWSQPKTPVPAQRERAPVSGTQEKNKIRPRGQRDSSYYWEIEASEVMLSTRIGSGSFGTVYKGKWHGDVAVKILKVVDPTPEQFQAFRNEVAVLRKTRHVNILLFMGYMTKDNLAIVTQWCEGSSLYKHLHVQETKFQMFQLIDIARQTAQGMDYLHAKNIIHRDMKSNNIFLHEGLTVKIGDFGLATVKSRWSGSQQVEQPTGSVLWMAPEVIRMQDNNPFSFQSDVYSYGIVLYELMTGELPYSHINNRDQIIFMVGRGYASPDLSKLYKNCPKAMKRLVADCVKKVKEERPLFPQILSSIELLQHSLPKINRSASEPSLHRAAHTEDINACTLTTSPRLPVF

COc1cc2cc(Oc3ccc(NC(=O)Nc4cc(C(F)(F)F)cc(C(F)(F)F)c4)cc3)c(C)nc2cc1OC
GI50 [1]: 0.64 µM
TGI [1]: 3.47 µM
CC50 [1, 33]: > 100 µM
GI50 [2]: 0.42 µM
TGI [2]: 2.48 µM
CC50 [2, 33]: 32.4 µM
GI50 [3]: 1.41 µM
TGI [3]: 5.1 µM
CC50 [3, 33]: 15.3 µM
GI50 [4]: 1 µM
LC50 (concentration killing 50% of cells) [4]: 8.88 µM
TGI [4]: 2.98 µM
GI50 [5]: 1.62 µM
LC50 (50% lethal concentration) [5]: 8.37 µM
TGI [5]: 3.68 µM
GI50 [6]: 0.57 µM
LC50 (concentration killing 50% of cells) [6]: 17 µM
TGI [6]: 2.53 µM
GI50 [7]: 0.918 to 0.92 µM
TGI [7]: 2.46 µM
CC50 [7, 33]: 6.27 µM
GI50 [8]: 0.488 to 0.49 µM
TGI [8]: 1.7 µM
CC50 [8, 33]: 4.52 µM
GI50 [9]: 1.1 µM
TGI [9]: 3.46 µM
CC50 [9, 33]: 13.6 µM
GI50 [10]: 0.59 µM
TGI [10]: 2.09 µM
CC50 [10, 33]: 32.5 µM
GI50 [11]: 1 µM
TGI [11]: 2.88 µM
CC50 [11, 33]: 8.25 µM
GI50 [12]: 0.65 to 0.654 µM
TGI [12]: 2.16 µM
CC50 [12, 33]: 5.73 µM
GI50 [13]: 0.54 µM
TGI [13]: 2.36 µM
CC50 [13, 33]: 5.75 µM
GI50 [14]: 1.58 µM
TGI [14]: 4.37 µM
CC50 [14, 33]: 41.8 µM
GI50 [15]: 1.08 µM
TGI [15]: 2.47 µM
CC50 [15, 33]: 5.61 µM
GI50 [16]: 2.06 µM
TGI [16]: 4.78 µM
CC50 [16, 33]: 5.94 µM
GI50 [17]: 1.8 µM
TGI [17]: 4.28 µM
CC50 [17, 33]: 11.6 µM
GI50 [18]: 1.75 µM
TGI [18]: 3.76 µM
CC50 [18, 33]: 30.1 µM
GI50 [19]: 1.42 µM
TGI [19]: 4.75 µM
CC50 [19, 33]: 22.5 µM
GI50 [20]: 0.51 µM
TGI [20]: 2.3 µM
CC50 [20, 33]: 8.68 µM
inhibition [21]: 92.4%
GI50 [22]: 1.52 µM
TGI [22]: 3.46 µM
CC50 [22, 33]: 7.91 µM
GI50 [23]: 1.71 µM
TGI [23]: 3.47 µM
CC50 [23, 33]: 5.91 µM
GI50 [24]: 1.73 µM
TGI [24]: 5.05 µM
CC50 [24, 33]: > 100 µM
GI50 [25]: 1.61 µM
TGI [25]: 3.09 µM
CC50 [25, 33]: 13.8 µM
GI50 [26]: 0.668 to 0.67 µM
LC50 (lethal concentration, 50% net cell kill) [26]: 4.91 µM
TGI [26]: 2.04 µM
GI50 [27]: 1.94 µM
LC50 [27]: 39.3 µM
TGI [27]: 5.71 µM
GI50 [28]: 1.45 µM
TGI [28]: 3.21 µM
CC50 [28, 33]: 7.11 µM
GI50 [29]: 1.44 µM
TGI [29]: 2.96 µM
CC50 [29, 33]: 6.12 µM
GI50 [30]: 1.62 µM
TGI [30]: 3.28 µM
CC50 [30, 33]: 6.67 µM
GI50 [31]: 0.96 µM
TGI [31]: 2.72 µM
CC50 [31, 33]: 7.53 µM
GI50 [32]: 0.41 to 0.46 µM
LC50 (lethal concentration, 50% cell kill) [32]: > 100 µM
TGI [32]: 5.51 µM
